One may read the IC50 as the concentration that gives 50% inhibition. A high value points to lower potency. As usually defined, the inhibition is the drop in the measured response relative to a control, in per cent. High values mean a response far below the control, low ones a response near the control.

For test [1], the species on record is Homo sapiens. Put plainly: Selectivity ratio of IC50 for human CYP11B2 to IC50 for human CYP11B1.
Test [2] deals with T1, Cytochrome P450 11B2, mitochondrial (Homo sapiens, UniProt P19099).
T1 sequence (P19099 whole entry): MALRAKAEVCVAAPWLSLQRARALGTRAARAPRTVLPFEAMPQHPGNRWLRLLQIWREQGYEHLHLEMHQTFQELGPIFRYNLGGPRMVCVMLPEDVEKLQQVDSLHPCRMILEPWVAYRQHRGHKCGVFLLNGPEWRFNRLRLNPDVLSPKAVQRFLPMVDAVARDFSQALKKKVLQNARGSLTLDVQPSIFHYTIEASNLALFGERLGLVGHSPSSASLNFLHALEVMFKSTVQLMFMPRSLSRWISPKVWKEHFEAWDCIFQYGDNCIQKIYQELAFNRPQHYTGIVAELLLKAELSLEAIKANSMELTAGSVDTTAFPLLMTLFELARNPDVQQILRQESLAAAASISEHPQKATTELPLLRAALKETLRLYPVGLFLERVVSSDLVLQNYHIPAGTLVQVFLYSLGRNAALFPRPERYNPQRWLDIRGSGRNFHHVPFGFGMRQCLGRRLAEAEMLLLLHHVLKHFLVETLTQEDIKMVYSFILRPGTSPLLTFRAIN
Put plainly: Inhibition of human CYP11B2 expressed in hamster V79 MZh cells using deoxycorticosterone substrate. The format is cell-based.

Test [3] addresses T2, Cytochrome P450 11B1, mitochondrial (Homo sapiens, UniProt P15538).
T2 sequence (P15538 whole entry): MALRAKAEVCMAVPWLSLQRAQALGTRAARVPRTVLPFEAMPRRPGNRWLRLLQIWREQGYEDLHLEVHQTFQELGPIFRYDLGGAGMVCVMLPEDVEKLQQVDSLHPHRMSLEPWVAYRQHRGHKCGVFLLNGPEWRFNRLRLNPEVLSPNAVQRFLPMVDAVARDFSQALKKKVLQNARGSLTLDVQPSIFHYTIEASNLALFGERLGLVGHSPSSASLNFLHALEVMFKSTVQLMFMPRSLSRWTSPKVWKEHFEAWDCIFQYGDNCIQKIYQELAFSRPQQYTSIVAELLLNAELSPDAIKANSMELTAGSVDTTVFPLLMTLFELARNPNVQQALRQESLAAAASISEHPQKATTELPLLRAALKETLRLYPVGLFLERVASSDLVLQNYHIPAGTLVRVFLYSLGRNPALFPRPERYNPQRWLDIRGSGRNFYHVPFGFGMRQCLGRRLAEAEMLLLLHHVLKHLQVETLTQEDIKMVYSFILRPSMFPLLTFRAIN
The test is described as follows: Inhibition of human CYP11B1 expressed in hamster V79 MZh cells using deoxycorticosterone substrate. The format is cell-based.

The species named for test [4] is Homo sapiens. The test is described as follows: Selectivity ratio of IC50 for human CYP17 to IC50 for human CYP11B1.
A further test has as its target T3, Aromatase (Homo sapiens, UniProt P11511).
T3 sequence (P11511 whole entry): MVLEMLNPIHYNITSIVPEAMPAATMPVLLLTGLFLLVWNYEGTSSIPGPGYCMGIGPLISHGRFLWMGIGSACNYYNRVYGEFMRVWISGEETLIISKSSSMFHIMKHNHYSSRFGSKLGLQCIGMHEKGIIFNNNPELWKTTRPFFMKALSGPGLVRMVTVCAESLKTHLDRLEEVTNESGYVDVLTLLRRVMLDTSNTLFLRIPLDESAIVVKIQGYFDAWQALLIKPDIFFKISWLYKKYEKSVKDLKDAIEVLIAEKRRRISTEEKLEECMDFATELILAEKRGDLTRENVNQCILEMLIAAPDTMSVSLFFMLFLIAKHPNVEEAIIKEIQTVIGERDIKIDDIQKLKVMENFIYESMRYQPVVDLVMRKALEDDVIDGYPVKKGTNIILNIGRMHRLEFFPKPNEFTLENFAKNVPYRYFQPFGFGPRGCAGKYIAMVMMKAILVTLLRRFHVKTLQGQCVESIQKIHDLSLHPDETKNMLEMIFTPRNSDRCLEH
The test is described as follows: Inhibition of human placental CYP19 using androstenedione substrate.

For test [5], the species on record is Homo sapiens. The test is described as follows: Selectivity ratio of IC50 for human placental CYP19 to IC50 for human CYP11B1.
For test [6], the target named is T4, Steroid 17-alpha-hydroxylase/17,20 lyase (Homo sapiens, UniProt P05093).
T4 sequence (P05093 whole entry): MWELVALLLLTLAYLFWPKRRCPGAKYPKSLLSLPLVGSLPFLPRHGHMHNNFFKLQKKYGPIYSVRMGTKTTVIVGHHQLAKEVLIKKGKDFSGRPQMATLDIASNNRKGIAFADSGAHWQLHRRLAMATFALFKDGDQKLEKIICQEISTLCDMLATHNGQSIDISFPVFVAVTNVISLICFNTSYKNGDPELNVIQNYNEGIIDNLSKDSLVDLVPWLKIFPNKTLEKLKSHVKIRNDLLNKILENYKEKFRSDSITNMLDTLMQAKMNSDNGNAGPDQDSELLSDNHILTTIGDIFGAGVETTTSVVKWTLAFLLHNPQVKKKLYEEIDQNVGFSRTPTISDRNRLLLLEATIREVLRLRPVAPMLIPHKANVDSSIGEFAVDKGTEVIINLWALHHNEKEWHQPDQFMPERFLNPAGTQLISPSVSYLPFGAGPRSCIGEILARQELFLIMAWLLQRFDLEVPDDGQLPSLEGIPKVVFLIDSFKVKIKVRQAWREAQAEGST
Put plainly: Inhibition of human CYP17 expressed in Escherichia coli using progesterone substrate.

Test [7] deals with T5, Cytochrome P450 11B1, mitochondrial (Rattus norvegicus, UniProt P15393).
T5 sequence (P15393 whole entry): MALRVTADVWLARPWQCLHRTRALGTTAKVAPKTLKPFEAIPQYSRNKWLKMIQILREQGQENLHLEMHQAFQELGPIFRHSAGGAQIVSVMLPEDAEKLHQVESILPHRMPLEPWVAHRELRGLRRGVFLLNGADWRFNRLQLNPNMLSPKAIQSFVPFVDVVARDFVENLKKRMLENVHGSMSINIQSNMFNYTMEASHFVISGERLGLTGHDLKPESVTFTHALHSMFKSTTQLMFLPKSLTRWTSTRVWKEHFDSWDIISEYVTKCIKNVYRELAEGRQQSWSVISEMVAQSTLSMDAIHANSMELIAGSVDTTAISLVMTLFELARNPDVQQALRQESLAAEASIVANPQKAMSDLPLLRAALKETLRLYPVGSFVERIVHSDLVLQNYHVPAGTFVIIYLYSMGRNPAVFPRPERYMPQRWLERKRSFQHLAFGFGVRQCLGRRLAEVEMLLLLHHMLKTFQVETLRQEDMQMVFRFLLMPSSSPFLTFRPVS
The test is described as follows: Inhibition of rat CYP11B1 at 2 uM.

For `O=C1CCc2cc(C(c3ccccc3F)n3ccnc3)cc3c2N1CC3` (configuration not stated), in the test filed under Homo sapiens [1], the Ratio IC50 came to 0.5. The IC50 in test [2] came to 19 nM; in test [3] it was 40 nM.
The matching figures for `O=C1CCc2cc(C(C3CCC3)n3ccnc3)cc3c2N1CC3` (configuration not stated): 1.2, 4.2 nM and 3.4 nM.
The matching figures for `COc1cccc(C(c2cc3c4c(c2)CCN4C(=O)CC3)n2ccnc2)c1` (configuration not stated): 0.8, 88 nM and 110 nM.
With `O=C1CCc2cc(C(c3ccccc3)n3ccnc3)cc3c2N1CC3` (configuration not stated), the Ratio IC50 in the test listed under Homo sapiens [1] came to 0.7. Moreover, the IC50 in test [2] was found to be 33 nM; in test [3], 50 nM.
Turning to `CC(C)C(c1cc2c3c(c1)CCN3C(=O)CC2)n1ccnc1` (configuration not stated), the Ratio IC50 in the test filed under Homo sapiens [4] was 1110; in the test listed under Homo sapiens [1], 2.7; in the test listed under Homo sapiens [5] it was above 357. In addition, the IC50 against Aromatase was above 500 nM; in test [2], 3.8 nM; in test [3] it was 1.4 nM; in test [6], 1550 nM.
In test [3], `O=C1CCc2cc(C(C3CC3)n3ccnc3)cc3c2N1CC3` (stereo in doubt; (+)-4) showed an IC50 of 10.3 nM.
As to `N#Cc1ccc(C(c2cc3c4c(c2)CCN4C(=O)CC3)n2ccnc2)cc1` (configuration not stated), the Ratio IC50 in the test listed under Homo sapiens [1] came out at 4.4. For the same compound, the figures for the IC50 in test [2] and in test [3] were 308 nM and 70 nM, respectively.
The matching figures for `O=C1CCc2cc(C(c3ccc(F)cc3)n3ccnc3)cc3c2N1CC3` (configuration not stated): 1.1, 29 nM and 27 nM.
With `C=C(c1cc2c3c(c1)CCN3C(=O)CC2)n1ccnc1`, the figures for the Ratio IC50 in the test listed under Homo sapiens [4], in the test filed under Homo sapiens [1] and in the test listed under Homo sapiens [5] were above 260, 5.3 and 0.9, respectively. Moreover, the IC50 was 17 nM at Aromatase, 100 nM in test [2], 19 nM in test [3] and above 5000 nM in test [6].
Consider `O=C1CCc2cc(C(c3cccs3)n3ccnc3)cc3c2N1CC3` (configuration not stated), for which, in the test listed under Homo sapiens [1], the Ratio IC50 stood at 1.4. For the same compound, the values for the IC50 in test [2] and in test [3] were 18 nM and 13 nM, respectively.
The matching figures for `O=C1CCc2cc(C(c3ccco3)n3ccnc3)cc3c2N1CC3` (configuration not stated): 2.4, 47 nM and 20 nM.
`COc1ccc(C(c2cc3c4c(c2)CCN4C(=O)CC3)n2ccnc2)cc1` (configuration not stated): the figures for the Ratio IC50 in the test filed under Homo sapiens [4], in the test listed under Homo sapiens [1] and in the test filed under Homo sapiens [5] were above 125, 2.6 and 1.1, respectively. Moreover, the IC50 against Aromatase was 43 nM; in test [2], 104 nM; in test [3] it was 40 nM; in test [6] it was above 5000 nM.
Turning to `O=C1CCc2cc(C(C3CC3)n3ccnc3)cc3c2N1CC3` (racemic), the IC50 was 228 nM at Aromatase, 24 nM in test [2], 2.2 nM in test [3] and 2880 nM in test [6]. Further, the inhibition at 2 µM in test [7] was 91%.
On to `O=C1CCc2cc(C(C3CC3)n3ccnc3)cc3c2N1CC3` (single isomer, unassigned; (-)), for which half-maximal inhibition in test [3] (IC50) was put at 1.5 nM.
In the case of `O=C1CCc2cc(C(c3cccc(F)c3)n3ccnc3)cc3c2N1CC3` (configuration not stated), in the test listed under Homo sapiens [1], the Ratio IC50 came out at 0.6. Moreover, the IC50 in test [2] stood at 18 nM; in test [3], 29 nM.
Take `N#Cc1cccc(C(c2cc3c4c(c2)CCN4C(=O)CC3)n2ccnc2)c1` (configuration not stated): the Ratio IC50 in the test listed under Homo sapiens [1] stood at 2.1. The IC50 in test [2] was determined as 304 nM; in test [3], 144 nM.
On to `CC(c1cc2c3c(c1)CCN3C(=O)CC2)n1ccnc1` (configuration not stated), for which the Ratio IC50 in the test listed under Homo sapiens [1] amounted to 0.9. The IC50 in test [2] was determined as 15 nM; in test [3], 17 nM.
Take `CC(c1cc2c3c(c1)CCN3C(=O)CC2)(n1ccnc1)n1ccnc1`: in the test filed under Homo sapiens [1], the Ratio IC50 came to 1.9. Further, the IC50 in test [2] amounted to 851 nM; in test [3], 438 nM.
The matching figures for `CCC(c1cc2c3c(c1)CCN3C(=O)CC2)n1ccnc1` (configuration not stated): 0.9, 5.8 nM and 6.5 nM.

The values are drawn from ChEMBL document CHEMBL2163333, “Novel imidazol-1-ylmethyl substituted 1,2,5,6-tetrahydropyrrolo[3,2,1-ij]quinolin-4-ones as potent and selective CYP11B1 inhibitors for the treatment of Cushing's syndrome” (J Med Chem, 2012).
